Test results from patent US20120253470A1, “COMPOSITIONS FOR BONE TISSUE REPAIR AND USES THEREOF” (PRESIDENT AND FELLOWS OF HARVARD COLLEGE, priority 2011, published 2012).

What was measured:
segmental femur defect = experiment: Repair of long bone (segmental femur) defect in mice; assay type: in vivo, C57/BI/6 wild-type mice
Experimental: (§1) The model animals used in this investigation were 10 week-old, skeletally mature, male C57/BI/6 wild-type mice. Mice are anesthetized by intramuscular injection with ketamine (7.5 mg/100 g body weight and xylazine (5-10 mg/kg body weight). The skin is shaved with an electric device and then scrubbed with a povidone-iodine scrub (e.g., Betadine®) and 70% alcohol, taking care to scrub from the center of the site toward the periphery. The site is then rinsed with 70% alcohol. At least three alternating preparations of germicidal scrub and rinse are performed. Finally, the area is draped with sterile drapes, which not only help to prevent contaminants from entering the surgical field, but also provide a sterile area on which to lay sterile instruments during surgery.
Full-thickness flaps are utilized in order to gain access to the femur. A roughly 5 mm length segmental femur defect is created on the C57/BI/6 mice. Once the defect has been created all mice received cell-free grafts. Control mice received no additional treatment, while the second group of mice received treatment with prom-1 #237. Soft tissues are closed with sutures. After the surgery, the animals are monitored until fully alert and monitoring continues thereafter for any issues related to discomfort, pain or infection. […] Medication to control pain is also delivered right after surgery and if detected subsequently. […] The animal is monitored continuously until it regains sternal recumbence and is capable of holding its head up, and is returned to its regular cage only when it is alert, mobile and breathing normally. […]
(§2) Post-surgical observations include a minimum daily observation, including weekends and holidays, of the condition of the animal and the surgical site. […] Pain/distress is monitored by monitoring the physiological parameters and behavioral responses although distress is more difficult to define and identify than pain. […] The animals are evaluated at day 14 after the creation of the defect to determine the extent of repair and regeneration.

[1] = tested on: craniotomy defect of the calvaria; experiment: Repair of calvarial bone defect in mice; assay type: in vivo, C57/BI/6 wild-type mice; conditions: prom-1 #237 added to composition containing FDBA
Experimental: as §1, with “One of the most common models used to test bone repair methods and compositions is defects in the calvarial bone in a model organism. Mice, rats, and rabbits are all frequently used in this model of flat bone repair. The model” for “The model”, “weight). The calvaria skin is” for “weight). The skin is”
Full-thickness flaps are utilized in order to gain access to the calvaria. […] After the surgery, the animals are monitored until fully alert and monitoring continues thereafter for any issues related to discomfort, pain or infection. […] Medication to control pain is also delivered right after surgery and if detected subsequently. […] The animal is monitored continuously until it regains sternal recumbence and is capable of holding its head up, and is returned to its regular cage only when it is alert, mobile and breathing normally. […]
as §2, with “56” for “14”

[2] = femur defect with cell-free graft, day 14

DRVQRQTTTVVA (SEQ ID NO: 35) [prom-1 #237]
ability of existing mouse cells to colonize the scaffold material and repair a large defect in the long bone (segmental femur defect; [2]): greatly increased | total extent of recovery (segmental femur defect; [2]): markedly improved | new bone growth / callus formation at the defect (FIG. 1B) (segmental femur defect; roughly 5 mm segmental femur defect, given in addition to cell-free graft, evaluated at day 14, versus graft only): significant callus formation | time to recovery [1]: significantly reduced | ability of existing mouse cells to colonize the FDBA scaffold material and repair a large defect in the calvarial flat bone ([1]; day 56): greatly increases | total extent of recovery ([1]; day 56): markedly improved
